Here are results for ten molecules from DBAASP.

Holding throughout (assay): ≥ marks a high value that may be exact or a test limit, other limits are often not marked, values filed in µg/mL are converted to µM
For assay [1], the system named is Staphylococcus aureus ATCC 25923.
Assay [2] relates to Escherichia coli ATCC 25922.
For assay [3], the system named is Pseudomonas aeruginosa CMCCB 10104.
Assay [4] deals with Candida albicans ATCC 2002.
Assay [5] deals with Escherichia coli ATCC 25726.
The test system of assay [6] is Candida albicans ATCC 90028.
The test system of assay [7] is Staphylococcus epidermidis.
A further assay relates to Escherichia coli UB1005.
The test system of a further assay is Candida albicans.
In assay [8] the test system is Salmonella enterica serovar Typhimurium.
In assay [9] the test system is Pseudomonas aeruginosa H103.
The test system of assay [10] is Enterococcus faecalis ATCC 29212.

Converted amounts (≈) assume the structure as drawn.

As for `CC[C@H](C)[C@H](NC(=O)CNC(=O)[C@H](C)NC(=O)[C@H](Cc1ccccc1)NC(=O)[C@H](CC(C)C)NC(=O)[C@H](CCCCN)NC(=O)[C@@H]1CCCN1C(=O)[C@H](CC(C)C)NC(=O)[C@@H](N)Cc1ccccc1)C(=O)N[C@H](C(=O)N[C@@H](CO)C(=O)N[C@@H](CCCCN)C(=O)N[C@@H](CC(N)=O)C(=O)N[C@@H](Cc1ccccc1)C(=O)O)[C@@H](C)CC` [FLPKLFAGIISKNF], the MIC came to 13.2 µM (≈ 21 µg/mL) in assay [1], 6.58 µM (≈ 10.5 µg/mL) in assay [2], 6.58 µM (≈ 10.5 µg/mL) in assay [3] and 3.32 µM (≈ 5.3 µg/mL) in assay [4].

With `CC[C@H](C)[C@H](NC(=O)[C@H](CC(C)C)NC(=O)[C@H](Cc1cnc[nH]1)NC(=O)[C@@H]1CCCN1C(=O)[C@@H](NC(=O)[C@@H](NC(=O)[C@H](CCCCN)NC(=O)[C@H](C)NC(=O)[C@@H](NC(=O)CNC(=O)[C@H](CCCCN)NC(=O)[C@H](CC(C)C)NC(=O)CNC(=O)[C@H](CC(C)C)NC(=O)[C@H](CCCCN)NC(=O)[C@H](CC(C)C)NC(=O)[C@H](CC(C)C)NC(=O)[C@@H]1CCCN1C(=O)CNC(=O)[C@H](CC(C)C)NC(=O)[C@H](Cc1ccccc1)NC(=O)CN)C(C)C)C(C)C)[C@@H](C)CC)C(=O)N1CCC[C@H]1C(=O)N[C@@H](CO)C(=O)N[C@@H](CCCN=C(N)N)C(=O)N[C@@H](CCC(N)=O)C(=O)N[C@@H](CCC(N)=O)C(=O)O` [GFLGPLLKLGLKGVAKVIPHLIPSRQQ], the MIC in assay [1] is 2.5 µM (≈ 7.2 µg/mL); in assay [5], not below 40 µM.

On to `CC[C@H](C)[C@H](NC(=O)[C@@H](NC(=O)[C@@H](NC(=O)CNC(=O)[C@H](C)NC(=O)[C@@H](NC(=O)[C@H](CC(N)=O)NC(=O)[C@@H](NC(=O)[C@H](C)NC(=O)[C@H](CC(C)C)NC(=O)[C@H](CC(N)=O)NC(=O)[C@H](CCCCN)NC(=O)[C@H](Cc1ccccc1)NC(=O)[C@@H](NC(=O)[C@H](CO)NC(=O)[C@H](CC(C)C)NC(=O)[C@H](CC(C)C)NC(=O)CN)[C@@H](C)O)[C@@H](C)O)C(C)C)[C@@H](C)O)C(C)C)C(=O)N[C@@H](CC(=O)O)C(=O)N[C@H](C(=O)N[C@@H](CC(C)C)C(=O)N[C@@H](CCCCN)C(=O)N[C@H]1CSSC[C@@H](C(=O)N[C@@H](CCCN=C(N)N)C(=O)N[C@H](C(=O)O)[C@@H](C)O)NC(=O)CNC(=O)CNC(=O)[C@H]([C@@H](C)O)NC(=O)[C@H](C(C)C)NC(=O)[C@H](CCCCN)NC1=O)[C@@H](C)O` [GLLSTFKNLATNVAGTVIDTLKCKVTGGCRT], for which the MIC in assay [6] was not below 80 µM; in assay [1] it was more than 80 µM; in [5], not below 80 µM.

Take `CC[C@H](C)[C@H](N)C(=O)N[C@H](C(=O)N[C@H](C(=O)N1CCC[C@H]1C(=O)N1CCC[C@H]1C(=O)N[C@H](C(=O)N[C@H](C(=O)N[C@@H](CCCCN)C(=O)N[C@@H](CC(=O)O)C(=O)N[C@H](C(=O)N[C@@H](CC(C)C)C(=O)N[C@@H](CCCCN)C(=O)N[C@@H](CCCCN)C(=O)N[C@@H](Cc1ccccc1)C(=O)N[C@H](C(=O)N[C@@H](CCCCN)C(=O)NCC(=O)N[C@@H](C)C(=O)N[C@H](C(=O)N[C@@H](CO)C(=O)NCC(=O)N[C@H](C(=O)N[C@@H](CCSC)C(N)=O)C(C)C)[C@@H](C)CC)[C@@H](C)CC)[C@@H](C)O)C(C)C)[C@@H](C)CC)[C@@H](C)CC)[C@@H](C)O` [ITIPPIVKDTLKKFIKGAISGVM]: the MIC in assay [1] is 20 µM (≈ 49.4 µg/mL); in assay [5] it was not below 80 µM.

`NCCCC[C@H](NC(=O)[C@H](Cc1c[nH]c2ccccc12)NC(=O)[C@H](Cc1c[nH]c2ccccc12)NC(=O)[C@H](CCCN=C(N)N)NC(=O)[C@@H](N)CCCCN)C(=O)N[C@@H](Cc1c[nH]c2ccccc12)C(=O)N[C@@H](Cc1c[nH]c2ccccc12)C(=O)N[C@@H](CCCN=C(N)N)C(=O)N[C@@H](CCCN=C(N)N)C(=O)O` [KRWWKWWRR]: the MIC is 0.7 µM (≈ 1.04 µg/mL) in assay [7]; 2.8 µM (≈ 4.17 µg/mL) against Escherichia coli UB1005; 5.6 µM (≈ 8.33 µg/mL) against Candida albicans; 5.6 µM (≈ 8.33 µg/mL) in assay [8]; 0.7 µM (≈ 1.04 µg/mL) in assay [1]; 11.1 µM (≈ 16.5 µg/mL) in assay [9]. In addition, in assay [10], the MIC came out at 11.1 µM (≈ 16.5 µg/mL).

Consider `NCCCC[C@H](N)C(=O)N[C@@H](CCCN=C(N)N)C(=O)N[C@@H](Cc1c[nH]c2ccccc12)C(=O)N[C@@H](Cc1c[nH]c2ccccc12)C(=O)N[C@@H](Cc1c[nH]c2ccccc12)C(=O)N[C@@H](Cc1c[nH]c2ccccc12)C(=O)N[C@@H](CCCN=C(N)N)C(=O)N[C@@H](Cc1ccccc1)C(=O)N[C@@H](CCCN=C(N)N)C(=O)O` [KRWWWWRFR], for which the MIC is 0.7 µM (≈ 1.05 µg/mL) in assay [7]; 2.9 µM (≈ 4.37 µg/mL) against Escherichia coli UB1005; 5.9 µM (≈ 8.89 µg/mL) in the assay with Candida albicans; 5.9 µM (≈ 8.89 µg/mL) in [8]; 0.7 µM (≈ 1.05 µg/mL) in assay [1]; not below 46.9 µM in assay [9]. This molecule came in with an MIC in [10] of 11.7 µM (≈ 17.6 µg/mL).

As to `CC[C@H](C)[C@H](NC(=O)[C@H](Cc1ccccc1)NC(=O)[C@H](CCCN=C(N)N)NC(=O)[C@@H](N)CC(C)C)C(=O)N[C@@H](CC(C)C)C(=O)N[C@@H](Cc1c[nH]c2ccccc12)C(=O)N[C@@H](Cc1c[nH]c2ccccc12)C(=O)N[C@@H](CCCCN)C(=O)N[C@@H](CCCN=C(N)N)C(=O)O` [LRFILWWKR], the minimum inhibitory concentration (MIC) stood at 1.6 µM (≈ 2.11 µg/mL) in [7]; 3.2 µM (≈ 4.22 µg/mL) against Escherichia coli UB1005; 6.4 µM (≈ 8.43 µg/mL) in the assay with Candida albicans; 6.4 µM (≈ 8.43 µg/mL) in assay [8]; 1.6 µM (≈ 2.11 µg/mL) in assay [1]; 25.7 µM (≈ 33.9 µg/mL) in assay [9]. In assay [10], this molecule gave a minimum inhibitory concentration (MIC) of 6.4 µM (≈ 8.43 µg/mL).

As to `CC(C)C[C@H](NC(=O)[C@H](CCCCN)NC(=O)[C@H](CCCN=C(N)N)NC(=O)[C@H](Cc1c[nH]c2ccccc12)NC(=O)[C@@H](N)CC(N)=O)C(=O)N[C@@H](Cc1ccc(O)cc1)C(=O)N[C@@H](CCCN=C(N)N)C(=O)N[C@@H](CCCN=C(N)N)C(=O)N[C@@H](CCCCN)C(=O)O` [NWRKLYRRK], the MIC in assay [7] is not below 43.3 µM; against Escherichia coli UB1005, not below 86.5 µM; with Candida albicans it was 86.5 µM (≈ 114 µg/mL); in [8], not below 86.5 µM; in [1] it was 86.5 µM (≈ 114 µg/mL); in [9], not below 86.5 µM. For the same molecule, the MIC in assay [10] was more than 86.5 µM.

For `CC[C@H](C)[C@H](NC(=O)[C@H](CCCN=C(N)N)NC(=O)[C@H](CC(C)C)NC(=O)[C@H](CCCN=C(N)N)NC(=O)[C@@H](N)C(C)C)C(=O)N[C@@H](CCCN=C(N)N)C(=O)N[C@H](C(=O)N[C@@H](C)C(=O)N[C@H](C(=O)N[C@H](C(=O)N[C@@H](CCCN=C(N)N)C(=O)N[C@@H](CCCCN)C(N)=O)[C@@H](C)CC)C(C)C)C(C)C` [VRLRIRVAVIRK], the minimal inhibitory concentration (MIC) in assay [7] was determined as 1.08 µM (≈ 1.6 µg/mL); against Escherichia coli UB1005 it was 2.03 µM (≈ 3 µg/mL); against Candida albicans it was 2.03 µM (≈ 3 µg/mL); in assay [8] it was 4.06 µM (≈ 6 µg/mL); in assay [1] it was 4.06 µM (≈ 6 µg/mL); in assay [9], 4.06 µM (≈ 6 µg/mL).

`CSCC[C@H](NC(=O)[C@H](CCCCN)NC(=O)[C@H](Cc1ccccc1)NC(=O)[C@@H](N)Cc1c[nH]c2ccccc12)C(=O)N[C@@H](CCCN=C(N)N)C(=O)N[C@@H](Cc1c[nH]c2ccccc12)C(=O)N[C@@H](Cc1c[nH]c2ccccc12)C(=O)NCC(=O)N[C@@H](CCCN=C(N)N)C(=O)O` [WFKMRWWGR]: the MIC in assay [7] was 2.9 µM (≈ 3.92 µg/mL); against Escherichia coli UB1005, 5.8 µM (≈ 7.85 µg/mL); against Candida albicans, 11.5 µM (≈ 15.6 µg/mL); in [8], 23.1 µM (≈ 31.2 µg/mL); in assay [1], 2.9 µM (≈ 3.92 µg/mL); in assay [9] it was not below 46.1 µM. In [10], this molecule gave an MIC of 11.5 µM (≈ 15.6 µg/mL).
